Test results as given in patent US9359298B2, “Cajanine structure analogous compound, preparation method and use” (INSTITUTE OF MEDICINAL BIOTECHNOLOGY, CHINESE ACADEMY OF …, priority 2011, dated 2016).
Values after ≈ are worked out from the molar mass of the structure shown.

Assays:
Format in all cases: cell-based
PC12 cells [1] = test: Neuroprotective activity assay, serum-deprived injury to PC12 cells (MTT); settings: for viability at 10 µM: Rattus norvegicus, PC-12, 48 h, 10 μM test compound, 48 h, Control 100.0 ± 9.2, Model 69.3 ± 4.1, read-out: serum-deprived (surviving PC12 cells, MTT 570 nm); for protective effect on serum-deprived injury to PC12 cells: statement in words
In short: (§1)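 PC12 cells on poly-lysine plated 24 h, then injured 48 h by serum-free DMEM or 4 μM rotenone with 10 μM test compound present during injury. Viability read by MTT (4 h), absorbance 570 nm.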

HIV-1 III B virus = test: Anti-HIV activity assay (P24 antigen in MT-4 cells); settings: for IC50: Human immunodeficiency virus 1, MT4, 96 h, MT-4 cells, HIV-1 III B 100TCID50, 96 h, P24 antigen, read-out: HIV IC50; for anti-HIV viral activity: statement in words
PC12 cells [2] = test: Neuroprotective activity assay, rotenone injury to PC12 cells (MTT); settings: for viability at 10 µM: Rattus norvegicus, PC-12, 48 h, 10 μM test compound, 4 μM rotenone, 48 h, Control 100.0 ± 8.9, Model 73.2 ± 7.8, read-out: rotenone (surviving PC12 cells, MTT 570 nm); for protective effect on rotenone injury to PC12 cells: statement in words
In short: as §1

HCV = test: Anti-hepatitis C virus (HCV) activity assay (HCV RNA in Huh7.5 cells); settings: for EC50: Hepatitis C virus, Huh7.5, 72 h, Huh7.5 cells, 72 h, HCV RNA by RT-PCR, Reed-Muench, read-out: HCV EC50; for anti-HCV viral activity: statement in words
Procedure: Inoculate Huh7.5 cells into 96-well plates to a density of 3×10^4 cells/cm^2, culture for 24h, infect the cells with 45 IU/cell HCV supernatant, meanwhile, add drug solutions or solvent control for treatment.

Coxsackie virus B6 = test: Coxsackie virus activity assay (CPE in Vero cells); settings: Vero, read-out: COX-B6 IC50, Vero cells, about 100TCID50, CPE, Reed-Muench
[3] = tested on: Influenza A virus (hanfang359/95); test: Determination of anti-influenza virus activity (CPE in MDCK cells); settings: for IC50: Influenza A virus, MDCK, 36 h; for anti-influenza virus activities compared with the lead compound cajanine: statement in words

COc1cc(/C=C/C=C/c2ccccc2)cc(O)c1CC=C(C)C [Compound 10m, 2-isopentenyl-3-methoxy-5-[(1′E,3′E)-phenylbutadiene-1′,3′-yl]phenol]
viability at 10 µM (PC12 cells [1]): 89.3 ± 6.4% | protective effect on serum-deprived injury to PC12 cells (PC12 cells [1]): the strongest activities | IC50 (HIV-1 III B virus): 2.33 µg/mL (≈ 7.27 µM) | anti-HIV viral activity (HIV-1 III B virus): stronger anti-HIV, HCV viral activities | viability at 10 µM (PC12 cells [2]): 85.3 ± 7.1% | protective effect on rotenone injury to PC12 cells (PC12 cells [2]): the strongest activities | EC50 (HCV): 1.75 µg/mL (≈ 5.46 µM) | anti-HCV viral activity (HCV): stronger anti-HIV, HCV viral activities | IC50 (Coxsackie virus B6): 6.12 µg/mL (≈ 19.1 µM) | IC50 [3]: 2.35 µg/mL (≈ 7.33 µM) | anti-influenza virus activities compared with the lead compound cajanine [3]: significantly stronger than the lead compound cajanine

COc1cc(/C=C/c2ccccc2)cc(O)c1C/C=C(\C)CCC=C(C)C [Compound 10o]
viability at 10 µM (PC12 cells [1]): 86.3 ± 3.8% | protective effect on serum-deprived injury to PC12 cells (PC12 cells [1]): the strongest activities | IC50 (HIV-1 III B virus): 0.96 µg/mL (≈ 2.65 µM) | anti-HIV viral activity (HIV-1 III B virus): stronger anti-HIV, HCV viral activities | viability at 10 µM (PC12 cells [2]): 87.6 ± 5.4% | protective effect on rotenone injury to PC12 cells (PC12 cells [2]): the strongest activities | EC50 (HCV): 1.32 µg/mL (≈ 3.64 µM) | anti-HCV viral activity (HCV): stronger anti-HIV, HCV viral activities | IC50 (Coxsackie virus B6): 0.96 µg/mL (≈ 2.65 µM) | IC50 [3]: > 2.06 µg/mL

COc1cc(/C=C/C2CCCCC2)cc(O)c1CC=C(C)C [Compound 10p, 2-isopentenyl-3-methoxy-5-[(E)-2-cyclohexylvinyl]phenol]
viability at 10 µM (PC12 cells [1]): 84.6 ± 2.7% | protective effect on serum-deprived injury to PC12 cells (PC12 cells [1]): the strongest activities | IC50 (HIV-1 III B virus): 7.19 µg/mL (≈ 23.9 µM) | viability at 10 µM (PC12 cells [2]): 86.7 ± 9.1% | protective effect on rotenone injury to PC12 cells (PC12 cells [2]): the strongest activities | EC50 (HCV): 2.95 µg/mL (≈ 9.82 µM) | IC50 (Coxsackie virus B6): > 6.19 µg/mL | IC50 [3]: 2.65 µg/mL (≈ 8.82 µM)

COc1cc(/C=C/c2ccc(O)cc2)cc(O)c1CC=C(C)C [Compound 10q, 2-isopentenyl-3-methoxy-5-[(E)-4′-hydroxystyryl]-phenol]
viability at 10 µM (PC12 cells [1]): 79.5 ± 1.4% | IC50 (HIV-1 III B virus): 2.38 µg/mL (≈ 7.67 µM) | anti-HIV viral activity (HIV-1 III B virus): stronger anti-HIV, HCV viral activities | viability at 10 µM (PC12 cells [2]): 76.8 ± 5.8% | EC50 (HCV): 0.89 µg/mL (≈ 2.87 µM) | anti-HCV viral activity (HCV): stronger anti-HIV, HCV viral activities | IC50 (Coxsackie virus B6): 2.35 µg/mL (≈ 7.57 µM) | IC50 [3]: 1.39 µg/mL (≈ 4.48 µM) | anti-influenza virus activities compared with the lead compound cajanine [3]: significantly stronger than the lead compound cajanine

COc1cc(/C=C/c2ccncc2)cc(O)c1CC=C(C)C [Compound 10r, 2-isopentenyl-3-methoxy-5-[(E)-(pyrid-4-yl)ethenyl]phenol]
viability at 10 µM (PC12 cells [1]): 68.5 ± 2.4% | IC50 (HIV-1 III B virus): 1.73 µg/mL (≈ 5.86 µM) | viability at 10 µM (PC12 cells [2]): 58.4 ± 6.5% | EC50 (HCV): 1.71 µg/mL (≈ 5.79 µM) | IC50 (Coxsackie virus B6): 3.23 µg/mL (≈ 10.9 µM) | IC50 [3]: > 0.69 µg/mL

COc1c(Cl)c(/C=C/c2ccccc2)cc(O)c1CC=C(C)C [Compound 10s, 2-isopentenyl-3-methoxy-4-chloro-5-[(E)-styryl]phenol]
viability at 10 µM (PC12 cells [1]): 78.5 ± 6.3% | IC50 (HIV-1 III B virus): 2.75 µg/mL (≈ 8.36 µM) | viability at 10 µM (PC12 cells [2]): 79.8 ± 3.5% | EC50 (HCV): 5.17 µg/mL (≈ 15.7 µM) | IC50 (Coxsackie virus B6): 4.35 µg/mL (≈ 13.2 µM) | IC50 [3]: > 6.17 µg/mL

COc1cc(CCc2ccccc2)cc(O)c1CCC(C)C [Compound 10u, 2-isopentyl-3-methoxy-5-phenethyl phenol]
viability at 10 µM (PC12 cells [1]): 87.6 ± 3.2% | protective effect on serum-deprived injury to PC12 cells (PC12 cells [1]): the strongest activities | IC50 (HIV-1 III B virus): 6.39 µg/mL (≈ 21.4 µM) | viability at 10 µM (PC12 cells [2]): 85.4 ± 2.3% | protective effect on rotenone injury to PC12 cells (PC12 cells [2]): the strongest activities | EC50 (HCV): 4.06 µg/mL (≈ 13.6 µM) | IC50 (Coxsackie virus B6): > 6.19 µg/mL | IC50 [3]: > 2.06 µg/mL

COc1cc(CCc2ccccc2)cc(O)c1CC=C(C)C [Compound 10v, 2-isopentenyl-3-methoxy-5-phenethyl phenol]
viability at 10 µM (PC12 cells [1]): 85.2 ± 4.1% | protective effect on serum-deprived injury to PC12 cells (PC12 cells [1]): the strongest activities | IC50 (HIV-1 III B virus): 1.36 µg/mL (≈ 4.59 µM) | viability at 10 µM (PC12 cells [2]): 87.1 ± 2.5% | protective effect on rotenone injury to PC12 cells (PC12 cells [2]): the strongest activities | EC50 (HCV): 1.73 µg/mL (≈ 5.84 µM) | IC50 (Coxsackie virus B6): > 6.19 µg/mL | IC50 [3]: > 0.69 µg/mL

COc1cc(/C=C/c2ccccc2)cc(O)c1CCC(C)C [Compound 10w, 2-isopentyl-3-methoxy-5-[(E)-styryl]phenol]
viability at 10 µM (PC12 cells [1]): 79.1 ± 4.6% | IC50 (HIV-1 III B virus): 0.75 µg/mL (≈ 2.53 µM) | viability at 10 µM (PC12 cells [2]): 78.2 ± 5.8% | EC50 (HCV): 2.59 µg/mL (≈ 8.74 µM) | IC50 (Coxsackie virus B6): 2.45 µg/mL (≈ 8.27 µM) | IC50 [3]: 0.53 µg/mL (≈ 1.79 µM) | anti-influenza virus activities compared with the lead compound cajanine [3]: significantly stronger than the lead compound cajanine

COc1cc(/C=C/c2ccccn2)cc(O)c1CC=C(C)C [Compound 10x, 2-isopentenyl-3-methoxy-5-[(E)-2-(pyrid-2-yl)ethenyl]phenol]
viability at 10 µM (PC12 cells [1]): 78.9 ± 4.6% | IC50 (HIV-1 III B virus): 1.09 µg/mL (≈ 3.69 µM) | viability at 10 µM (PC12 cells [2]): 78.9 ± 5.4% | EC50 (HCV): 0.93 µg/mL (≈ 3.15 µM) | IC50 (Coxsackie virus B6): 0.42 µg/mL (≈ 1.42 µM) | IC50 [3]: 0.09 µg/mL (≈ 0.305 µM) | anti-influenza virus activities compared with the lead compound cajanine [3]: significantly stronger than the lead compound cajanine

COc1cc(/C=C/c2cc(OC)c(OC)c(OC)c2)cc(O)c1CC=C(C)C [Compound 10y, 2-isopentenyl-3-methoxy-5-[(E)-3,4,5-trimethoxystyryl]phenol]
viability at 10 µM (PC12 cells [1]): 89.1 ± 5.4% | IC50 (HIV-1 III B virus): 1.66 µg/mL (≈ 4.32 µM) | viability at 10 µM (PC12 cells [2]): 89.5 ± 2.5% | EC50 (HCV): 1.39 µg/mL (≈ 3.62 µM) | IC50 (Coxsackie virus B6): 2.58 µg/mL (≈ 6.71 µM) | IC50 [3]: 0.13 µg/mL (≈ 0.338 µM) | anti-influenza virus activities compared with the lead compound cajanine [3]: significantly stronger than the lead compound cajanine
